{"source": "patent US11173192B2", "about": "(priority 2016, dated 2021)", "key": {"[1]": {"test_system": "VSV-infected RAW264.7 cells", "type": "cell-based"}, "[2]": {"test_system": "VSV", "type": "cell-based, vesicular stomatitis virus (VSV)"}}}
{"substance": "EPRS: glutamyl-prolyl-tRNA synthetase protein, 1512 aa, SEQ ID NO: 63; expressed from plasmid or purified", "values": [{"measurement": "IFN-β production following infection with VSV", "setting": "[1]", "value": "more production of IFN-β and IL-6"}, {"measurement": "IL-6 production following infection with VSV", "setting": "[1]", "value": "more production of IFN-β and IL-6"}, {"measurement": "viral replication following infection with VSV", "setting": "[2]", "value": "significantly less viral replication"}]}
